Patent US20260335282A1, “NOVEL 3-ARYLIDENE-2-INDOLINONE DERIVATIVES FOR THERAPEUTIC USE” (ISTANBUL UNIVERSITESI REKTORLUGU, priority 2022, published 2026)
“Also recorded” adds a separate entry of the source. Where two headings read alike, the source gives them in different places.

Tests used:
[1] = tested on: MIAPaCa-2 cells; assay: MTT cytotoxicity, pancreas cancer cells MIAPaCa-2; type: cell-based, human
Source text: (§1) The cytotoxicity, general tyrosine kinase inhibitory effects and cell death (apoptosis/necrosis) assays of 1-benzyl-3-(1H-indol-3-ylmethylidene)-1,3-dihydro-2H-indol-2-one derivatives (Formula 5) of the present invention are studied by the following methods. […] HUVEC (human umbilical vein endothelial cell), MCF-10F (human breast epithelial cell) and Beas2b (human lung bronchial epithelial cell) cell lines have been used as healthy control cells in MTT experiments.
(§2) Beas2b (human lung bronchiole epithelial cell) and HEK293 (renal tubule epithelium) cells used as normal cell lines were cultured in RPMI medium, and HUVEC (human umbilical cord endothelial cells) and MCF-10F (human breast epithelial cell) cells are cultured in DMEM medium containing 100 µg/ml penicillin/streptomycin. The cells, which covered 70% of the culture flask, are washed with phosphate buffer and then removed from the surface of the flask by application of trypsin-ethylenediamine tetraacetic acid (Trypsin-EDTA; 0.25%) solution, passaged, counted and seeded on appropriate plates before each experiment. Cells are treated with a total of 45 2-indolinone compounds (5) at concentrations of 0.1, 1, 5 and 10 μM. Stock compounds are prepared in 1 ml dimethylsulfoxide (DMSO) and 4 different dilutions were prepared with medium and performed to the cells. Control group cells are treated with DMSO at a similar concentration to the experimental groups.
(§3) MTT (3-(4,5-dimethylthiazol-2-yl)-2,5-diphenyl-2H-tetrazolium bromide) colorimetric assay provides quantitation of viable cells with ongoing mitochondrial activity in culture medium. According to the standard procedure in cell culture conditions, cells are maintained in RPMI-1640 and DMEM culture media containing 10% FBS and 1% penicillin/streptomycin. The trypan blue test is used for cell counts.
(§4) The effects of 45 2-indolinone compounds (5) on cell viability in all cancer cell lines are investigated by MTT assay. Cells are seeded in a 96-well flat bottom plate with 5000 cells in each well and 2-indolinone compounds (5) at concentrations of 0.1, 1, 5 and 10 μM are performed to the cells the next day. After 48 and/or 72 hours following treatment with 2-indolinone compounds, 50 μl of the supernatant is slowly discarded (as it was acid medium) and MTT at a concentration of 5 mg/ml is added to each well in a volume of 10 μl. After incubation for 4 hours, the formazan crystals formed in the wells are dissolved by adding 100 μl DMSO and the optical density is read at 570 nm test wavelength and 630 nm reference wavelength. Cell viability is expressed as % cell viability by comparing the absorbance of control and test wells. IC50 value is calculated from the dose-response curves prepared for each compound. In addition, the possible DMSO effect is eliminated by preparing negative control wells compatible with the amount of DMSO contained in the compounds. To understand the reaction of the compounds with MTT, cell-free (MTT+compounds) negative controls are prepared at the concentrations used (Mosmann, 1983). […] The absorbance values obtained are compared to the control and statistically evaluated by unpaired t-test using “Graphpad Prism 5.04” software. “P<0.05” is accepted as significant. When evaluating cytotoxic effects, the present inventors aim for the inventive compounds to be effective in cancer cells and ineffective in healthy cells. The inventive compounds have also been compared with sunitinib, one of the reference chemotherapy drugs currently used in treatment.

[2] = tested on: CAKI-1 cells; assay: MTT cytotoxicity, kidney cancer cells CAKI-1; type: cell-based, human
Source text: as §1, §2, §3, §4
(§5) Among the compounds of the present invention, those that killed cancer cells by at least 50% (p<0.05) are selected and tested whether a 10-fold concentration of the M concentration at the IC50 value is toxic to normal healthy cells.

[3] = tested on: MDA-MB-231 cells; assay: MTT cytotoxicity, breast cancer cells MDA-MB-231; type: cell-based, human; settings: MTT, no * mark (incubation time not given)
Source text: as §1, §2, §3, §4, §5

[4] = tested on: HT-29 cells; assay: MTT cytotoxicity, colon cancer cells HT-29; type: cell-based, human; settings: MTT
Source text: as §1, §2, §3, §4

[5] = tested on: human cancer cells; assay: MTT cell viability, human cancer cells overall; type: cell-based; settings: cell line as discussed at the place
Source text: as §1, §2, §3
The effects of 45 2-indolinone compounds (5) on cell viability in all cancer cell lines are investigated by MTT assay. Cells are seeded in a 96-well flat bottom plate with 5000 cells in each well and 2-indolinone compounds (5) at concentrations of 0.1, 1, 5 and 10 μM are performed to the cells the next day. After 48 and/or 72 hours following treatment with 2-indolinone compounds, 50 μl of the supernatant is slowly discarded (as it was acid medium) and MTT at a concentration of 5 mg/ml is added to each well in a volume of 10 μl. After incubation for 4 hours, the formazan crystals formed in the wells are dissolved by adding 100 μl DMSO and the optical density is read at 570 nm test wavelength and 630 nm reference wavelength. Cell viability is expressed as % cell viability by comparing the absorbance of control and test wells. IC50 value is calculated from the dose-response curves prepared for each compound. In addition, the possible DMSO effect is eliminated by preparing negative control wells compatible with the amount of DMSO contained in the compounds. To understand the reaction of the compounds with MTT, cell-free (MTT+compounds) negative controls are prepared at the concentrations used (Mosmann, 1983). […] The absorbance values obtained are compared to the control and statistically evaluated by unpaired t-test using “Graphpad Prism 5.04” software. “P<0.05” is accepted as significant. When evaluating cytotoxic effects, the present inventors aim for the inventive compounds to be effective in cancer cells and ineffective in healthy cells. […]

[6] = tested on: HUVEC cells; assay: MTT cytotoxicity, healthy cells HUVEC; type: cell-based, human; settings: for IC50: MTT
Source text: as §1, §2, §3, §4, §5

[7] = tested on: A498 cells; assay: MTT cytotoxicity, kidney cancer cells A498; type: cell-based, human; settings: MTT
Source text: as §1, §2, §3, §4, §5

[8] = tested on: MCF-10F/Beas2b cells; assay: MTT cytotoxicity, healthy cells MCF-10F/Beas2b; type: cell-based, human; settings: for IC50: Homo sapiens, MTT
Source text: as §1, §2, §3, §4, §5

[9] = tested on: MCF-7 cells; assay: MTT cytotoxicity, breast cancer cells MCF-7; type: cell-based, human; settings: for IC50: MTT
Source text: as §1, §2, §3, §4, §5

[10] = tested on: A549 cells; assay: MTT cytotoxicity, lung cancer cells A549; type: cell-based, human
Source text: as §1, §2, §3, §4, §5

[11] = tested on: HCT-116 cells; assay: MTT cytotoxicity, colon cancer cells HCT-116; type: cell-based, human
Source text: as §1, §2, §3, §4

[12] = tested on: pancreas and kidney cancer cells; assay: Apoptosis detection, Annexin V/PI flow cytometry, pancreas and kidney cancer cells; type: cell-based, human
Method: After incubation with 2-indolinone compounds (IC50 μM concentration; 48 and/or 72 hours), cells are washed twice with PBS and the cell pellet is suspended in Annexin V binding buffer. After this incubation, cells are incubated with FITC-conjugated Annexin V and propidium iodine staining solution for 15 minutes in the dark and at room temperature. Then, cells are analyzed by flow cytometry (Beckman coulter, Navios) (Wlodkowic, D., Skommer, J, Darzynkiewicz, Z. 2009. Flow cytometry-based apoptosis detection, Methods Mol Biol., 559, 1-14).
Whether the 2-indolinone derivatives (5) with the highest selectivity index and general TKI activity stimulated apoptosis and necrosis is determined by Annexin V and propidium iodine staining in pancreas and kidney cancer cells. Annexin V/PI flow cytometry apoptosis values of the tested compounds Y1, Y2, Y3, Y4, Y8 and Y14 are found to be 40% and above in correlation with MTT results. The apoptosis rates of the control groups and the substances are analyzed by t test in GraphPad version 9.0.

[13] = tested on: general tyrosine kinase activity in MIA PaCa-2 pancreas cancer cells; assay: General tyrosine kinase activity (ELISA) in MIAPaCa-2 cells; type: cell-based, human; settings: 72 hours, IC50 concentration
Method: Takara Universal Tyrosine Kinase Assay Kit is used to determine the effects of 11 2-indolinone compounds (Y1, Y2, Y3, Y4, Y5, Y8, […], […], Y21, Y23, 20C, 22C) on general tyrosine kinase activity in cancer cells. Cells are seeded in 6-well plates (4.10^5 cells/well) and the IC50 concentration of each selected molecule is performed to the cells for 48 or 72 hours. Cells in the control group are incubated with medium only. At the end of the incubation period, the cells in each well are washed with PBS and cells are removed from the wells using a cell scraper via 1 ml of the extraction buffer in the kit. The cell lysate is transferred to ependorf tubes and centrifuged at 10.000 g for 10 minutes at +4° C. and the supernatant is used as a sample for activity determination. After the extracts obtained from the control and experimental groups are diluted 1:25, 40 μl extracts is transferred to two wells in the 96-well plate in the kit. In addition, the standard solution in the kit is diluted according to the kit instructions and each concentration is transferred 40 μl into three wells. 10 μl of 40 mM ATP-2Na solution is added to all wells and the plate is incubated at 37° C. for 30 minutes. After incubation, all wells are washed 4 times with wash buffer. 100 μl of blocking solution is added to each well and incubated again at 37° C. for 30 minutes. After incubation, the liquid in the wells is discarded and 50 μl of anti-phosphotyrosine-HRP solution is added to each well and incubated at 37° C. for 30 minutes. The wells are washed again four times with wash buffer and 100 μl of HRP-substrate solution (TMBZ) is added to each well and incubated at 37° C. for 15 minutes. The reaction is finished by adding 100 μl of stop solution to each well and the optical density in each well is measured at 405 nm with a microplate reader (BioTek, USA). The tyrosine kinase activity in each sample is calculated from the standard curve obtained from the absorbance values of the standard solutions with the kit (Chan W Y, Lau P M, Yeung K W, Kong S K. The second generation tyrosine kinase inhibitor dasatinib induced eryptosis in human erythrocytes—An in vitro study. Toxicol Lett. 2018; 295:10-21). This activity is normalized compared to the control group by dividing by the amount of protein in each sample.
The effects of 11 2-indolinone compounds (Y1, Y2, Y3, Y4, Y5, Y8, Y14, Y21, Y23, 20C and 22C) having the structure of formula (5), which are prominent with their cytotoxicity in A498, MIAPaCa-2 and HCT-116 cancer cell lines and nontoxic properties in healthy cells, on general tyrosine kinase activity in cancer cells are determined.

[14] = MTT, no * mark (incubation time not specified)
[15] = no * mark (incubation time not specified)
[16] = read-out: IC50, MDA-MB-231 (breast)

SMILES: O=C1/C(=C\c2c[nH]c3ccccc23)c2cc(Cl)ccc2N1Cc1ccc(F)cc1 [17C]
- IC50 ([1]; Homo sapiens, MIA PaCa-2, MTT, no * mark (incubation time not given)): 1320 nM
- IC50 ([2]; Homo sapiens, CAKI-1, *: effective 72 hours after incubation): 4620 nM
- IC50 ([3]; Homo sapiens, MDA-MB-231, read-out: IC50, MDA-MB-231 (breast)): > 10000 nM
- IC50 ([4]; Homo sapiens, HT-29, no * mark (incubation time not given)): 2070 nM
- potency/selectivity compared with sunitinib malate [5]: more potent than sunitinib malate
- IC50 ([6]; Homo sapiens, HUVEC, no * mark (incubation time not given)): 1240 nM
- IC50 ([7]; Homo sapiens, A498, 72 h, *: effective 72 hours after incubation): 770 nM
- IC50 ([8]; *: effective 72 hours after incubation): 2660 nM
- IC50 ([8]; no * mark (incubation time not given)): 2660 nM
- cytotoxicity in healthy cells ([8]; healthy cells): high in healthy cells
- IC50 ([9]; Homo sapiens, MCF7, *: effective 72 hours after incubation): 4760 nM
- IC50 ([10]; Homo sapiens, A549, no * mark (incubation time not given)): 1110 nM
- IC50 ([11]; Homo sapiens, HCT-116, no * mark (incubation time not given)): 930 nM

SMILES: O=C1/C(=C\c2c[nH]c3ccccc23)c2cccc(Cl)c2N1Cc1ccccc1 [22C]
- IC50 [1, 14]: > 10000 nM
- IC50 [2, 15]: 2490 nM
- IC50 [3, 16]: 8400 nM
- IC50 [4, 15]: > 10000 nM
- potency/selectivity compared with sunitinib malate [5]: much more potent and have higher SI values than the reference compound sunitinib malate
- Selectivite Index (SI), HUVEC (Table 1) ([6]; HUVEC vs breast or kidney cancer cells, cancer line not given): > 17.54
- IC50 [6, 15]: > 10000 nM
- IC50 [7, 15]: > 10000 nM
- Selectivite Index (SI), MCF-10F/Beas2b (Table 1) ([8]; MCF-10F/Beas2b vs breast or kidney cancer cells, cancer line not given): > 17.54
- selectivity index (SI) ([9]; MCF-10F vs MCF-7): > 17
- IC50 [9, 15]: 570 nM
- IC50 [10, 15]: > 10000 nM
- IC50 [11, 15]: > 10000 nM

SMILES: O=C1/C(=C\c2c[nH]c3ccccc23)c2cc(Cl)ccc2N1Cc1ccccc1 [Y2]
- selectivity index ([1]; MCF-10F/Beas2b vs MIAPaCa-2): > 21
- IC50 [1, 14]: 480 nM
- IC50 [2, 15]: 4250 nM
- IC50 [3, 16]: 4960 nM
- IC50 [4, 15]: 1520 nM
- Selectivite Index, HUVEC (Table 2) ([6]; HUVEC vs colon or pancreas cancer cells, cancer line not given): 2.21
- IC50 [6, 15]: 1060 nM
- Annexin V/PI flow cytometry apoptosis values [12]: ≥ 40%
- IC50 [7, 15]: 2360 nM
- general tyrosine kinase activity compared to control [13]: significantly decreased; also recorded: decreased the general tyrosine kinase activity
- Selectivite Index, MCF-10F/Beas2b (Table 2) ([8]; MCF-10F/Beas2b vs colon or pancreas cancer cells, cancer line not given): > 20.83
- IC50 [9, 15]: 4160 nM
- IC50 [10, 15]: 4040 nM
- IC50 [11, 15]: 1440 nM
